Read-outs that look alike come from different tables or passages of the source.
What was measured:
[1] = tested on: S. gordonii biofilm; test: Mono-species biofilm of S. gordonii; type: cell-based, Streptococcus gordonii; conditions: treated with lead compound
Protocol: (§1) Growth of commensal and dual-species biofilms. Overnight broth cultures were transferred by 1:50 dilutions into fresh THB medium and were allowed to grow until mid-exponential phase (OD470 nm=0.6) before transfer to 96-well plates. For mono-species biofilms, 1:100 dilution of the individual cultures was added to the 96-well plate containing the desired concentration of compound or DMSO. After incubation for 16 h, the biofilms were gently washed with PBS in triplicate and the biofilms were quantified with crystal violet staining. For dual-species biofilms, 1:100 dilution of S. mutans was used and 1:10 dilution of the commensal species (S. sanguinius or S. gordonii) was used as inoculum to seed the 96-well plate containing the desired concentration of compound or DMSO. After incubation for 16 h, the biofilms were scratched off with a sterile spatula and suspended in 100 μL of PBS, the biofilm samples were vortexed. To determine the total number of viable bacterial cells (colony forming units, CFU), 100 μl from dispersed, 16 h biofilms were serially diluted in potassium phosphate buffer and plated in duplicate on BAP. The commensal species could be differentiated from S. mutans due to their characteristic green rings.

[2] = tested on: Aggregatibacter actinomycetemcomitans VT1169; test: Growth of Aggregatibacter actinomycetemcomitans; type: cell-based; conditions: 200 μM
Protocol: (§2) Cell viability of S. mutans, S. gordonii, S. sanguinis, Aggregatibacter actinomycetemcomitans and Actinomyces. […] The number of colony-forming units (CFU) per milliliter of each sample treated with selected compounds at different concentrations was enumerated after incubation for 24 h at 37° C. and compared to the values obtained from the DMSO control group. Overnight broth cultures were transferred by 1:50 dilutions into fresh THB medium and were allowed to grow until mid-exponential phase (OD470 nm 0.6) before transfer to 96-well plates containing desired concentration of the compound. After 16 h incubation, bacterial growth was measured at OD470, and normalized to the DMSO control (100%).

[3] = tested on: S. mutans biofilm; test: S. mutans biofilm formation and inhibition assay (96-well plates, crystal violet); type: cell-based, Streptococcus mutans; conditions: for IC50: Streptococcus mutans
[4] = biological target: GtfC (Streptococcus mutans serotype c (strain ATCC 700610 / UA159), UniProt P13470); test: Zymographic assay on GtfC from S. mutans GtfBD mutants; type: biochemical; conditions: 25 μM
GtfC, sequence (P13470 35-1455 limits assumed): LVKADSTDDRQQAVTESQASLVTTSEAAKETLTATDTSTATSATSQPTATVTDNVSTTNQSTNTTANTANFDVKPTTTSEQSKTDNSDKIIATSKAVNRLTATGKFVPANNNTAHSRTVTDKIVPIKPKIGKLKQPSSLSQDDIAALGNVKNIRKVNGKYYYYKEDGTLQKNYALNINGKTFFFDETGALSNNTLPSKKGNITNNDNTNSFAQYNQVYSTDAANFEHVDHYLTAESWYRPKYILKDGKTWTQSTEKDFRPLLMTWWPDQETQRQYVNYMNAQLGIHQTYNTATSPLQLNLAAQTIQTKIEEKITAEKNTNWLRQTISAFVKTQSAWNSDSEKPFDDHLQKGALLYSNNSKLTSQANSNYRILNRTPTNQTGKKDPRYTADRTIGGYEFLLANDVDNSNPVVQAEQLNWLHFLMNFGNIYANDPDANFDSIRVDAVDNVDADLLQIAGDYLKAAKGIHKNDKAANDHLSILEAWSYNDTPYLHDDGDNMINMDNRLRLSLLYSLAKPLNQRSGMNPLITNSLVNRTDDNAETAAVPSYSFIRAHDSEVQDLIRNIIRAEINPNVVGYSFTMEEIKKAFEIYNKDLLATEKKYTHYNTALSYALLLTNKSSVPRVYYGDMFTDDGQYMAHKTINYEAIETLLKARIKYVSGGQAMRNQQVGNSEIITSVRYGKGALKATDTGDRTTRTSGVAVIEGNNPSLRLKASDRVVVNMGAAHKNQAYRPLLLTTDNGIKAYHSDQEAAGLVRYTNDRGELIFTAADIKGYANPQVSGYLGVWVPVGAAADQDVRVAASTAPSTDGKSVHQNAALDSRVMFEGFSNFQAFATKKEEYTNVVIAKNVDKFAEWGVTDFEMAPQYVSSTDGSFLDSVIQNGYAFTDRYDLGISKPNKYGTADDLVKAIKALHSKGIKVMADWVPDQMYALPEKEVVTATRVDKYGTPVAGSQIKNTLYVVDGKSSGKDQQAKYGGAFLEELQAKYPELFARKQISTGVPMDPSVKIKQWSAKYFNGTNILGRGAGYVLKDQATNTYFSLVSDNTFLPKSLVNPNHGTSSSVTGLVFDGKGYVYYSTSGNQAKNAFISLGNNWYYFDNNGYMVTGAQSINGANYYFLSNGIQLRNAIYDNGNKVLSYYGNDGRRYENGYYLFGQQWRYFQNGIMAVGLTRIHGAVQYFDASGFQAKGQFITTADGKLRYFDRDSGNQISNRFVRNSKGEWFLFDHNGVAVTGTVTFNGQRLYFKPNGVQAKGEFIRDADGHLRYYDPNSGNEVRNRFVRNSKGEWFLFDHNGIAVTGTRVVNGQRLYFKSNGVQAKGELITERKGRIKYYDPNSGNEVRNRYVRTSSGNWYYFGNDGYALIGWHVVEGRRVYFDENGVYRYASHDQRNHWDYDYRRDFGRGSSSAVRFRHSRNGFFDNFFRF
Protocol: (§3) FIGS. 3A-3C show Gtf patterns of S. mutans UA159 and its mutant variants. Culture supernatants were prepared from S. mutans UA159 and gtf double mutants, and then subjected to SDS-PAGE analysis with equivalent amount of proteins in each lane. […] The intensity of the bands were quantified using ImageJ in comparison to DMSO.
(§4) Supernatants containing Gtf proteins prepared from S. mutans bacterial cultures were subjected to SDS-PAGE analysis and zymographic assay. […] The same amount of the protein sample was used as controls and visualized by protein staining (FIG. 3A, top panels). The lead compounds were also tested against individual Gtfs using supernatant proteins harvested from cultures of various double mutants.
(§5) Construction of S. mutans Gtfs mutants. GtfB, GtfC single mutant, and GtfBC double mutant in which gtf was replaced with a kanamycin resistance cassette, aphA3 (encoding an aminoglycoside phosphotransferase), were gifts from Dr. Robert Burne's Laboratory, University of Florida, Gainesville, Fla. The GtfD mutant was constructed by an overlapping PCR ligation strategy using an erythromycin resistance cassette isolated from the IFDC2 cassette (Xie, Z., Okinaga, T., Qi, F., Zhang, Z. & Merritt, J. Cloning-independent and counterselectable markerless mutagenesis system in Streptococcus mutans. Appl Environ Microbiol 77, 8025-8033 (2011)).

[5] = tested on: Actinomyces naeslundii T14VJ1; test: Growth of Actinomyces naeslundii; type: cell-based; conditions: 200 μM; printed as slight inhibition (>20%)
Protocol: as §2

[6] = tested on: gtfs expression; test: Real time RT-PCR of gtfs expression; type: cell-based, Streptococcus mutans; conditions: S. mutans UA159, different concentrations, calibrated by 16S rRNA
Protocol: The expression of gtfs was examined by real time RT-PCR. The mRNA expression levels were calibrated by 16S rRNA. Values represent the means±standard deviations from three independent experiments. […] The P value>0.05 is considered to be not significant.
The effect of this potent small molecule on the gene expression of gtfs was also examined. The relative expression level of gtfs was evaluated by real time RT-PCR.

[7] = biological target: GtfB (Streptococcus mutans serotype c (strain ATCC 700610 / UA159), UniProt P08987); test: Zymographic assay on GtfB from S. mutans GtfCD mutants; type: biochemical; conditions: 25 μM
GtfB, sequence (P08987 35-1476 limits assumed): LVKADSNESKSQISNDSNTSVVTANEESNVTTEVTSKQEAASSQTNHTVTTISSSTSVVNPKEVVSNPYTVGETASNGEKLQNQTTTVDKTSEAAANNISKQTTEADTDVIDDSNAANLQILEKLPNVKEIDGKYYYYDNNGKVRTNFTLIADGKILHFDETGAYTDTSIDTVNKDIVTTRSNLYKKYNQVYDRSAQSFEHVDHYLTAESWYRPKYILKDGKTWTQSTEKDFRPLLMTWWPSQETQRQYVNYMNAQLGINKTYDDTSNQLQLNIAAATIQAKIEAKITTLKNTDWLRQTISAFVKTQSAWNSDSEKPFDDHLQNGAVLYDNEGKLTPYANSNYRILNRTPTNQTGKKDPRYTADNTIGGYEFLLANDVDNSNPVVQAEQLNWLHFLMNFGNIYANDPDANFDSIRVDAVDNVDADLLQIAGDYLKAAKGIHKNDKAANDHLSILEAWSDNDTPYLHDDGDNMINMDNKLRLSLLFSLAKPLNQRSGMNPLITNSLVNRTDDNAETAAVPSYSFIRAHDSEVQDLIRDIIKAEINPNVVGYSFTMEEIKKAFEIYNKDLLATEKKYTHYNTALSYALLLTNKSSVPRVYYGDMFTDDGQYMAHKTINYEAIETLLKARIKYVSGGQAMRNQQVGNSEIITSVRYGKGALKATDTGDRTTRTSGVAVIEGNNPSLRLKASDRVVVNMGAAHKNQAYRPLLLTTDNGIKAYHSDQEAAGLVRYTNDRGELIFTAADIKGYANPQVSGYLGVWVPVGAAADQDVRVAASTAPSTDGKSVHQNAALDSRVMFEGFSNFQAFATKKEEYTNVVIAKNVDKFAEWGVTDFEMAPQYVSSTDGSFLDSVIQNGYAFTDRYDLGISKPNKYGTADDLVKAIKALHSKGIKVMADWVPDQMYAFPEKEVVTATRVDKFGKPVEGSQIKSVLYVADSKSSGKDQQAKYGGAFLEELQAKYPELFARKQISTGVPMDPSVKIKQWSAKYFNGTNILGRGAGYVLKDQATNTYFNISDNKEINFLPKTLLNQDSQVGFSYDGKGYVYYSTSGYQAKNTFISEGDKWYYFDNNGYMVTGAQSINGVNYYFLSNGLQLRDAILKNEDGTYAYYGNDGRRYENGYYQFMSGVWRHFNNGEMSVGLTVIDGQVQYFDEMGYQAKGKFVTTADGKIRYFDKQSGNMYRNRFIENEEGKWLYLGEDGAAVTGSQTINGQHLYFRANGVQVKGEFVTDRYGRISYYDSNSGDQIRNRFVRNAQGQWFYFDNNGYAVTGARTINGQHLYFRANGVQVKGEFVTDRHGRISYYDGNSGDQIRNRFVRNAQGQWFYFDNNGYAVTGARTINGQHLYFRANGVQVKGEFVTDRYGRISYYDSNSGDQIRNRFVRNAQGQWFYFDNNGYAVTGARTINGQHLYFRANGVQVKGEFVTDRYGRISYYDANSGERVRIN
Protocol: as §3, §4, §5

[8] = tested on: S. sanguinis biofilm; test: Mono-species biofilm of S. sanguinis; type: cell-based, Streptococcus sanguinis; conditions: up to 200 μM
Protocol: as §1

[9] = tested on: S. mutans colonization; test: Sucrose-dependent Drosophila colonization model; type: in vivo; conditions: 50 μM
Protocol: Briefly, Gfp tagged S. mutans bacteria were infected into flies along with the treatment appropriate compound at 100 μM in a feeding-assay.
Mid-log phase THB cultures of Gfp-tagged (green fluorescent protein) S. mutans UA159 were spun down and resuspended in a solution containing 5% sucrose and 50 μM of the compound. 100 μL of resuspended cells were spotted onto a sterile filter that was placed on the surface of 5 mL of solidified 5% sucrose agar in a plastic vial. The vials were allowed to dry at room temperature for 30 minutes prior to addition of flies. Male Canton S flies (1-3 days old) were treated with antibiotics for 2 days and starved for 3 hours prior to the addition to vials supplied with S. mutans (10 flies per vial). The colonization of flies by Gfp-tagged strains were analyzed by Nikon elipse 90i microscope, equipped with an Epi-fluorescence and NIS elements AR imaging system.
The intensity of the fluorescence was measured in the guts of the flies fed with the Gfp tagged bacteria after 7 days of infection.
Cultures of Gfp-tagged (green fluorescent protein) S. mutans UA159 grown to middle log phase were spun down and re-suspended in a solution containing 5% sucrose and 50 μM of each compound. 100 μL of re-suspended cells were aliquoted onto a sterile filter that was placed on the surface of 5 mL of solidified 5% sucrose agar in a plastic vial. Upon the drying of the vials at room temperature for 30 min, the flies were introduced to the vessels. Male Canton S flies (1-3 days old) were treated with antibiotics for 2 days and starved for 3 h before the addition to vials supplied with S. mutans (10-14 flies per vial). Nikon elipse 90i microscope, equipped with an Epi-fluorescence and NIS elements AR imaging system was used to analyze the colonization of flies by Gfp-tagged strains.

Row | Structure (SMILES) | S. gordonii biofilm formation [1] | inhibition of Aggregatibacter actinomycetemcomitans growth [2] | inhibition of S. mutans biofilms at 12.5 μM ([3]; 12.5 μM, crystal violet assay) | inhibition of GtfC activity (ImageJ band intensity) [4] | inhibition of Actinomyces naeslundii growth [5] | expression of gtfs versus DMSO [6] | inhibition of GtfB activity (ImageJ band intensity) [7] | S. sanguinis biofilm formation versus control [8] | IC50 ([3]; Table 3, read-out: Biofilm Inhibition IC50) | IC50 ([3]; Table 4, stilbenes, NI = no inhibition, read-out: Biofilm IC50) | IC50 ([3]; Table 8, stilbenes, NI = no inhibition, read-out: Biofilm IC50) | IC50 ([3]; read-out: S. mutans biofilm IC50) | fluorescence of Gfp tagged S. mutans in fly guts after 7 days [9]
1 | NC(=O)c1ccccc1NC(=O)c1cc2cc([N+](=O)[O-])ccc2s1 [#G43] | slight increase | no significant inhibition | more than 85% | 80% | > 20% | no significant difference was observed | 80% | No significant difference | – | – | – | – | –
2 | Oc1cc(O)cc(/C=C/c2ccc(O)c(O)c2)c1 [Piceatannol] | – | – | – | – | – | – | – | – | 52 ± 6 µM | 52 ± 6 µM | 52 ± 6 µM | 52 µM | significant decrease in fluorescence

Reference: patent US11866416B2, “Streptococcus mutans glucosyl transferase inhibitors for dental caries therapy” (UAB Research Foundation, priority 2018, dated 2024)
